Results reported in patent US10888575B2, “Combination comprising zidovudine and a carbapenem” (HELPERBY THERAPEUTICS LIMITED, priority 2016, dated 2021).
Like-named read-outs stand apart in the source and are kept apart here.

Key:
Assay type in all cases: cell-based
[1] = system: log phase NDM-1 Escherichia coli (BAA2471); experiment: time-kill, zidovudine and meropenem; conditions: 24 hours
Procedure: (§1) As described hereinabove, time-kill methods are another accepted test for ascertaining the presence or absence of synergy, and involve comparing the dynamic effect of a drug combination with each drug alone when assessing the effect on bacterial log or stationary-growth over time.
(§2) • 1. Bacterial strain used: BAA2471 or BAA2469 strain of Escherichia coli • 2. Growth of bacteria: Log phase growth of BAA2471 or BAA2469 was carried out according to known methods in the art, e.g. SOP R-005-00 Log Phase Growth of Bacteria. • 3. Compound preparation: zidovudine and mereopenem were both obtained from commercial sources (e.g. Sigma-Aldrich). • 4. The overnight culture was diluted with nutrient broth (Oxoid) to 10^7 CFU/ml and 280 μl and 290 μl of the culture was added to each combination well and drug respectively, to make the final concentration of 300 μl. • 5. Incubation of the compounds with the bacterial suspension was carried out for 24 hours. At 0, 2, 4, 7 and 24 hours, CFU counts were performed to measure the kill effects of the drug combination. Results and Discussion

[2] = system: log phase NDM-1 Escherichia coli (BAA2469); experiment: time-kill, zidovudine and meropenem; conditions: 24 hours
Procedure: as §1, §2

[3] = system: log phase NDM-1 Klebsiella pneumoniae (BAA2470); experiment: chequerboard method, zidovudine, meropenem and colistimethate sodium; parameters: chequerboard reading: scale not given here
Procedure: The chequerboard method used in Example 1 was followed, according to the protocols detailed in Antimicrob Chemo (2013) 68, 374-384. The bacterial strain of NDM-1 Klebsiella pneumoniae was BAA2470. Log phase growth of BAA2470 was carried out as described in the art. Zidovudine, meropenem and colistimethate sodium were obtained from commercially available sources. The effects of the triple combination of the present invention were examined by calculating the MIC for each drug alone and in combination.

[4] = system: log phase NDM-1 Klebsiella pneumoniae subsp. pneumoniae (BAA2472); experiment: chequerboard method, zidovudine and meropenem; parameters: scale not given here
Procedure: The chequerboard method used in Example 1 followed the protocols detailed in Antimicrob Chemo (2013) 68, 374-384.
Log phase growth of NDM-1 Klebsiella pneumoniae subsp. pneumoniae was carried out as described in the art. Zidovudine and meropenem were obtained from commercially available sources. The effects of the combination of the present invention were examined by calculating the fractional inhibitory concentration index (FICI) of each combination, as follows:
(MIC of drug A, tested in combination)/(MIC of drug A, tested alone)+(MIC of drug B, tested in combination)/(MIC of drug B, tested alone).
The interaction of the combination was defined as showing synergy if the FICI was ≤0.5, no interaction if the FICI was >0.5 but <4.0 and antagonism if the FICI was >4.0.

[5] = system: log phase NDM-1 K. pneumoniae subsp. pneumoniae (BAA2470); experiment: time-kill, zidovudine, meropenem and CMS
Procedure: as §2, with “BAA2470” for “BAA2471 or BAA2469”, “K. pneumoniae subsp. pneumoniae” for “Escherichia coli”, “zidovudine, mereopenem” for “zidovudine”, “colistimethate sodium” for “mereopenem”, “were” for “were both”, “combination.” for “combination. Results and Discussion”

[6] = zidovudine added at 0.25 μg/ml to the meropenem and CMS combination

With `C[C@@H](O)[C@H]1C(=O)N2C(C(=O)O)=C(S[C@@H]3CN[C@H](C(=O)N(C)C)C3)[C@H](C)[C@H]12` [meropenem] as the compound, how does the time-kill effect ([1]; meropenem alone 256 mg/L) read?
Its time-kill effect is “little or no effect”.

What about the time-kill effect ([2]; meropenem alone 8 mg/L) of the same compound?
Its time-kill effect is “little or no effect”.

And the MIC ([3]; Klebsiella pneumoniae, BAA2470)?
The MIC was 256 µg/mL.

And the MIC ([3]; Klebsiella pneumoniae, BAA2470, zidovudine added at 0.5 μg/ml to the meropenem and CMS combination, read-out: MIC)?
The MIC was 64 µg/mL.

And the MIC ([3]; Klebsiella pneumoniae, BAA2470, zidovudine added at 1 μg/ml to the meropenem and CMS combination, read-out: MIC)?
Its MIC is 16 µg/mL.

And the chequerboard reading ([3]; meropenem 8, CMS 0, zidovudine 0 μg/ml)?
Its chequerboard reading is 0.69.

What about the chequerboard reading ([3]; meropenem 16, CMS 0, zidovudine 0 μg/ml) of the same compound?
The chequerboard reading was 0.70.

And the chequerboard reading ([3]; meropenem 32, CMS 0, zidovudine 0 μg/ml)?
The chequerboard reading was 0.63.

And the chequerboard reading ([3]; meropenem 64, CMS 0, zidovudine 0 μg/ml)?
The chequerboard reading was 0.55.

And the chequerboard reading ([3]; meropenem 128, CMS 0, zidovudine 0 μg/ml)?
The chequerboard reading was 0.36.

What about the chequerboard reading ([3]; meropenem 256, CMS 0, zidovudine 0 μg/ml) of the same compound?
Its chequerboard reading is 0.05.

What about the chequerboard reading ([3]; meropenem 512, CMS 0, zidovudine 0 μg/ml) of the same compound?
Its chequerboard reading is 0.05.

And the MIC [3, 6]?
The MIC was “remained the same”.

And the chequerboard reading ([4]; zidovudine 0, meropenem 0.25)?
Its chequerboard reading is 0.40.

And the chequerboard reading ([4]; zidovudine 0, meropenem 0.5)?
Its chequerboard reading is 0.41.

And the chequerboard reading ([4]; zidovudine 0, meropenem 1)?
Its chequerboard reading is 0.45.

And the chequerboard reading ([4]; zidovudine 0, meropenem 2)?
Its chequerboard reading is 0.35.

And the chequerboard reading ([4]; zidovudine 0, meropenem 4)?
Its chequerboard reading is 0.34.

What about the chequerboard reading ([4]; zidovudine 0, meropenem 8) of the same compound?
Its chequerboard reading is 0.44.

What about the chequerboard reading ([4]; zidovudine 0, meropenem 16) of the same compound?
Its chequerboard reading is 0.44.

And the chequerboard reading ([4]; zidovudine 0, meropenem 32)?
Its chequerboard reading is 0.25.

What about the chequerboard reading ([4]; zidovudine 0, meropenem 64) of the same compound?
Its chequerboard reading is 0.21.

What about the chequerboard reading ([4]; zidovudine 0, meropenem 128) of the same compound?
The chequerboard reading was 0.20.

And the chequerboard reading ([4]; zidovudine 0, meropenem 256)?
The chequerboard reading was 0.05.

What about the “kill of the bacterium” value ([5]; meropenem alone 64 μg/ml, at 4 hours, followed by a regrowth) of the same compound?
Its value is “about 3 logs”.

How did the time-kill effect ([1]; zidovudine alone 32 mg/L) turn out when `Cc1cn([C@H]2C[C@H](N=[N+]=[N-])[C@@H](CO)O2)c(=O)[nH]c1=O` [zidovudine, 1-[(2R,4S, 5S)-4-Azido-5-(hydroxymethyl)oxolan-2-yl]-5-methylpyrimidine-2,4-dione] was run?
The time-kill effect was “little or no effect”.

What about the time-kill effect ([2]; zidovudine alone 16 mg/L) of the same compound?
Its time-kill effect is “little or no effect”.

And the chequerboard reading ([3]; meropenem 0, CMS 0, zidovudine 0.25 μg/ml)?
The chequerboard reading was 0.31.

What about the chequerboard reading ([3]; meropenem 0, CMS 0, zidovudine 0.50 μg/ml) of the same compound?
The chequerboard reading was 0.17.

And the chequerboard reading ([3]; meropenem 0, CMS 0, zidovudine 1 μg/ml)?
Its chequerboard reading is 0.11.

What about the chequerboard reading ([3]; meropenem 0, CMS 0, zidovudine 2 μg/ml) of the same compound?
The chequerboard reading was 0.08.

And the chequerboard reading ([4]; zidovudine 0.5, meropenem 0)?
Its chequerboard reading is 0.16.

What about the chequerboard reading ([4]; zidovudine 1, meropenem 0) of the same compound?
Its chequerboard reading is 0.22.

What about the chequerboard reading ([4]; zidovudine 2, meropenem 0) of the same compound?
Its chequerboard reading is 0.10.

And the chequerboard reading ([4]; zidovudine 4, meropenem 0)?
The chequerboard reading was 0.23.

And the chequerboard reading ([4]; zidovudine 8, meropenem 0)?
Its chequerboard reading is 0.23.

What about the chequerboard reading ([4]; zidovudine 16, meropenem 0) of the same compound?
Its chequerboard reading is 0.04.

And the chequerboard reading ([4]; zidovudine 32, meropenem 0)?
Its chequerboard reading is 0.26.

What about the “kill of the bacterium” value ([5]; zidovudine alone 16 μg/ml, at 2 hours, then growth occurred) of the same compound?
Its value is “one”.

What does the source list for colistimethate sodium?
chequerboard reading ([3]; meropenem 0, CMS 0.031, zidovudine 0 μg/ml): 0.66; chequerboard reading ([3]; meropenem 0, CMS 0.063, zidovudine 0 μg/ml): 0.61; chequerboard reading ([3]; meropenem 0, CMS 0.125, zidovudine 0 μg/ml): 0.58; chequerboard reading ([3]; meropenem 0, CMS 0.25, zidovudine 0 μg/ml): 0.50; chequerboard reading ([3]; meropenem 0, CMS 0.5, zidovudine 0 μg/ml): 0.51; chequerboard reading ([3]; meropenem 0, CMS 1, zidovudine 0 μg/ml): 0.47; chequerboard reading ([3]; meropenem 0, CMS 2, zidovudine 0 μg/ml): 0.46; chequerboard reading ([3]; meropenem 0, CMS 4, zidovudine 0 μg/ml): 0.42; chequerboard reading ([3]; meropenem 0, CMS 8, zidovudine 0 μg/ml): 0.42; chequerboard reading ([3]; meropenem 0, CMS 16, zidovudine 0 μg/ml): 0.23; chequerboard reading ([3]; meropenem 0, CMS 32, zidovudine 0 μg/ml): 0.05; MIC ([3]; without zidovudine): 32 µg/mL; MIC [3, 6]: 8 µg/mL; MIC ([3]; zidovudine added at 0.5 μg/ml to the meropenem and CMS combination): 0.5 µg/mL; MIC ([3]; zidovudine added at 1 μg/ml to the meropenem and CMS combination): 0.25 µg/mL; time-kill effect ([5]; CMS alone 4 ug/ml): no effect
